The results in this text go back to PMC7529893, “Structural basis for substrate recognition and chemical inhibition of oncogenic MAGE ubiquitin ligases” (Nature Communications, 2020).

The target in the first experiment is T1, MAGE-A11:PCF11 interaction (GST-MAGE-A11 and FAM-PCF11_4) (Homo sapiens, UniProt P43364).
T1 construct: GST-MAGE-A11 MHD (human MAGE-A11 MHD amino acid 218-429); made in house; host or cells: E. coli BL21(DE3)
T1 sequence (P43364 218-429): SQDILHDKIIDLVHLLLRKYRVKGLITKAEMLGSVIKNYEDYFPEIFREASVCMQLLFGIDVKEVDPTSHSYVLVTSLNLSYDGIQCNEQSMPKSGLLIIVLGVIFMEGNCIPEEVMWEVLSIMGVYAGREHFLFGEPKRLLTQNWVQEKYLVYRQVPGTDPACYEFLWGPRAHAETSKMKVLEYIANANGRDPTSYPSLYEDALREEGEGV
Kind of experiment: TR-FRET primary / single point screen at 15 µM. The experiment is classed as binding. The note with it: single point TR-FRET screening of 797 quinoline compounds against MAGE-A11:PCF11. As to the method: The TR-FRET assay buffer with a formula of 50 mM Tris pH 7.5, 20 mM MgCl2, 0.1 mg/ml BSA and 1 mM DTT was freshly prepared before each experiment. All TR-FRET assays were performed in black 384-well plates with 20 µl/well assay volume in the TR-FRET assay buffer at room temperature (~25 °C). All peptides or compounds were solubilized in DMSO. To test the competitive activity of peptides or compounds against the interaction between GST-MAGE-A11 MHD and FAM-PCF11_4 peptide, 10 µl/well peptide or compound at specified concentration was dispensed into a black 384-well low volume plate, followed by 5 µl/well FAM-PCF11_4 (800 nM), 5 µl/well Tb-anti-GST (20 nM), and GST-MAGE-A11 MHD (20 nM). The assay components in each well was then mixed by shaking the plate on an IKA MTS 2/4 digital microtiter plate shaker (IKA Works; Wilmington, NC, USA) for 1 min. The plate was further centrifuged in an Eppendorf 5810 centrifuge with an A-4-62 swing-bucket rotor (Eppendorf AG, Hamburg, Germany) at 201 g for 30 s. The plate was then incubated for 90 min with a lid to avoid light exposure to the assay components. After incubation, the fluorescent emission signals at 520 nm and 490 nm channels of individual wells were measured with a PHERAstar FS plate reader (BMG Labtech; Durham, NC, USA) by using a 340 nm excitation filter, 100 µs delay time, and 200 µs integration time. The TR-FRET fluorescence emission ratio (TR-FRET signal) for each well was presented as 10,000 × 520 nm/490 nm, which was used directly for curve fitting, or further converted to %Inhibition based on the respective positive and negative controls. The graphic software GraphPad Prism 4.81 (GraphPad Software; La Jolla, CA, USA) was used to generate curves and derive IC50 values of tested peptides or compounds, if applicable. TR-FRET screen for identifying MAGE-A11 small molecule inhibitors was performed as follows. The primary one-concentration screening and subsequent 10 or 20-concentration dose-response tests were accomplished with an automated High Throughput Screening system (HighRes Biosolutions, Beverly, MA)[30]. In the primary screening, 15 µl/well FAM-PCF11_4 (267 nM) was first dispensed with a Multidrop Combi Reagent Dispenser (Thermo Fisher Scientific, Waltham, MA) to black 384-well low-volume assay plates. The plates were spun down with a Velocity11 VSpin microplate centrifuge (Agilent Technologies, Santa Clara, CA). In total, 30 nl/well of 10 mM compound/DMSO solutions, or DMSO alone, were transferred from compound plates (the St. Jude FDA drug and bioactive library, Drug-like library and Lead-like library) or a control plate to the assay plates with a Pin Tool (V&P Scientific, San Diego, CA). The compounds were arrayed in columns 3–12 and columns 15–24 of compound plates. The controls were arrayed in columns 1, 2, 13, and 14 of a compound plate. In all, 5 µl/well Tb-anti-GST (20 nM) and GST-MAGE-A11 (20 nM) or 5 µl/well Tb-anti-GST (20 nM) alone was then dispensed to selected wells with a Multidrop Combi Reagent Dispenser. The final assay volume was 20 µl/well. […] The final tested compound concentration was 15 µM. The final FAM-PCF11_4 concentration was 200 nM and the final Tb-anti-GST concentration was 5 nM. The final GST-MAGE-A11 concentration was 5 nM except for those selected positive control wells in which GST-MAGE-A11 was not presented. The plates were then shaken with a big bear shaker (Big Bear Automation, Santa Clara, California) and spun down with the Velocity11 VSpin microplate centrifuge for 20 s. The plates were then incubated at room temperature in a Liconic incubator (Liconic US, Woburn, MA) for 90 min. The TR-FRET signals for individual wells were measured with a PHERAstar FS plate reader. The %Inhibition of each tested inhibitor was calculated by using Eq. 1. Those inhibitors with %Inhibition >30% in the primary screening were selected for further dose-response test, along with additional newly synthesized compounds. […]
A general note: TR-FRET usually uses a lanthanide donor and a delayed reading to cut background.
Take `CCN1CCN(c2c(S(=O)(=O)c3ccc(OC)cc3)cnc3cc(OC)c(OC)cc23)CC1` [SJ000083972]: the “percent inhibition (TR-FRET)” value amounted to 7.411.

Turning to `Cc1ccc2ncc(S(=O)(=O)c3ccccc3)c(N3CCN(c4ccccc4)CC3)c2c1` [SJ000083973], the “percent inhibition (TR-FRET)” value is -29.7042.

`COc1ccc2ncc(S(=O)(=O)c3ccccc3)c(N3CCN(c4ccccc4)CC3)c2c1` [SJ000083974]: the “percent inhibition (TR-FRET)” value was -132.977.

Consider `CCOc1ccc2ncc(S(=O)(=O)c3ccccc3)c(N3CCN(c4ccccc4)CC3)c2c1` [SJ000083975], for which the “percent inhibition (TR-FRET)” value was -12.0602.

`O=S(=O)(c1ccccc1)c1cnc2ccc(F)cc2c1N1CCN(c2ccccc2)CC1` [SJ000083976]: the “percent inhibition (TR-FRET)” value is -31.1045.

Take `O=S(=O)(c1ccccc1)c1cnc2ccc(Cl)cc2c1N1CCN(c2ccccc2)CC1` [SJ000083977]: the “percent inhibition (TR-FRET)” value was -15.701.

Turning to `COc1ccc2ncc(S(=O)(=O)c3ccccc3)c(N3CCN(c4ccc(F)cc4)CC3)c2c1` [SJ000083978], the “percent inhibition (TR-FRET)” value is listed as -133.117.

Regarding `CCOc1ccc2ncc(S(=O)(=O)c3ccccc3)c(N3CCN(c4ccc(F)cc4)CC3)c2c1` [SJ000083979], the “percent inhibition (TR-FRET)” value is -181.288.

Consider `O=S(=O)(c1ccccc1)c1cnc2ccc(F)cc2c1N1CCN(c2ccc(F)cc2)CC1` [SJ000083980], for which the “percent inhibition (TR-FRET)” value is -11.08.

Take `COc1ccc(N2CCN(c3c(S(=O)(=O)c4ccccc4)cnc4ccc(C)cc34)CC2)cc1` [SJ000083981]: the “percent inhibition (TR-FRET)” value is -37.966.

`COc1ccc(N2CCN(c3c(S(=O)(=O)c4ccccc4)cnc4ccc(F)cc34)CC2)cc1` [SJ000083982]: the “percent inhibition (TR-FRET)” value is given as -32.8549.

As to `COc1ccc(N2CCN(c3c(S(=O)(=O)c4ccccc4)cnc4ccc(Cl)cc34)CC2)cc1` [SJ000083983], the “percent inhibition (TR-FRET)” value is listed as -17.9415.

Consider `CN(C)c1cc(NC(=O)CN2CCOCC2)c2ccccc2n1` [SJ000111677], for which the “percent inhibition (TR-FRET)” value is reported as 4.988.

On to `CN(C)c1cc(NC(=O)CNC(C)(C)CC(C)(C)C)c2ccccc2n1` [SJ000111678], for which the “percent inhibition (TR-FRET)” value is 10.6249.

With `Cc1cc(NC(=O)CN2CCN(C(=O)c3ccco3)CC2)c2ccccc2n1` [SJ000111679], the “percent inhibition (TR-FRET)” value is -1.072.

Regarding `Cc1cc(NC(=O)CN2CCN(C)CC2)c2ccccc2n1` [SJ000111680], the “percent inhibition (TR-FRET)” value turned out to be 4.6472.

On to `CCc1nc2ccccc2c(NC(=O)CN2CCN(c3ccccc3)CC2)c1C` [SJ000111681], for which the “percent inhibition (TR-FRET)” value was found to be 6.8942.

For the compound `CCc1nc2ccccc2c(NC(=O)CN2CCCCC2)c1C` [SJ000111682], the “percent inhibition (TR-FRET)” value was 1.593.

In the case of `O=C(CN1CCN(C(=O)c2ccccc2)CC1)Nc1c2c(nc3ccccc13)N(c1cccc(Cl)c1)CC2` [SJ000111683], the “percent inhibition (TR-FRET)” value is listed as -264.327.

Consider `O=C(CN1CCN(C(c2ccccc2)c2ccccc2)CC1)Nc1c2c(nc3ccccc13)CCC2` [SJ000111684], for which the “percent inhibition (TR-FRET)” value turned out to be 11.85.

`COc1ccc(-c2csc(N3CCN(c4cc(C)nc5ccccc45)CC3)n2)cc1OC` [SJ000114009]: the “percent inhibition (TR-FRET)” value is -53.4343.

For the compound `Cc1ccc(S(=O)(=O)c2cnc3ccccc3c2N2CCN(c3ccccc3)CC2)cc1` [SJ000117047], the “percent inhibition (TR-FRET)” value is -6.567.

With `COc1ccc2ncc(S(=O)(=O)c3ccc(C)cc3)c(N3CCN(c4ccccc4)CC3)c2c1` [SJ000117048], the “percent inhibition (TR-FRET)” value is reported as -85.5732.

Turning to `CCOc1ccc2ncc(S(=O)(=O)c3ccc(C)cc3)c(N3CCN(c4ccccc4)CC3)c2c1` [SJ000117049], the “percent inhibition (TR-FRET)” value is reported as -45.3213.

Consider `Cc1ccc(S(=O)(=O)c2cnc3ccc(Cl)cc3c2N2CCN(c3ccccc3)CC2)cc1` [SJ000117050], for which the “percent inhibition (TR-FRET)” value is recorded as -3.321.

With `COc1ccc2ncc(S(=O)(=O)c3ccc(C)c(C)c3)c(N3CCN(c4ccccc4)CC3)c2c1` [SJ000117051], the “percent inhibition (TR-FRET)” value is -52.476.

Turning to `Cc1ccc(S(=O)(=O)c2cnc3ccc(F)cc3c2N2CCN(c3ccccc3)CC2)cc1C` [SJ000117052], the “percent inhibition (TR-FRET)” value was -16.9013.

For `CCc1ccc(S(=O)(=O)c2cnc3ccccc3c2N2CCN(c3ccccc3)CC2)cc1` [SJ000117053], the “percent inhibition (TR-FRET)” value is recorded as -21.2074.

For `O=S(=O)(c1ccc(Cl)cc1)c1cnc2ccc(F)cc2c1N1CCN(c2ccccc2)CC1` [SJ000117055], the “percent inhibition (TR-FRET)” value was 2.112.

On to `CCc1ccc2ncc(S(=O)(=O)c3ccc(OC)cc3)c(N3CCN(c4ccccc4)CC3)c2c1` [SJ000117056], for which the “percent inhibition (TR-FRET)” value was -2.791.

In the case of `Cc1ccc(S(=O)(=O)c2cnc3ccccc3c2N2CCN(c3ccc(F)cc3)CC2)cc1` [SJ000117057], the “percent inhibition (TR-FRET)” value is given as -20.6111.

Regarding `Cc1ccc(S(=O)(=O)c2cnc3ccc(C)cc3c2N2CCN(c3ccc(F)cc3)CC2)cc1` [SJ000117058], the “percent inhibition (TR-FRET)” value is given as -4.068.

Regarding `COc1ccc2ncc(S(=O)(=O)c3ccc(C)cc3)c(N3CCN(c4ccc(F)cc4)CC3)c2c1` [SJ000117059], the “percent inhibition (TR-FRET)” value is listed as -118.524.

Take `CCOc1ccc2ncc(S(=O)(=O)c3ccc(C)cc3)c(N3CCN(c4ccc(F)cc4)CC3)c2c1` [SJ000117060]: the “percent inhibition (TR-FRET)” value is -11.0715.

Turning to `Cc1ccc(S(=O)(=O)c2cnc3ccc(F)cc3c2N2CCN(c3ccc(F)cc3)CC2)cc1` [SJ000117061], the “percent inhibition (TR-FRET)” value is on record as -70.4952.

For `Cc1ccc(S(=O)(=O)c2cnc3ccccc3c2N2CCN(c3ccc(F)cc3)CC2)cc1C` [SJ000117062], the “percent inhibition (TR-FRET)” value is reported as -54.8642.

In the case of `O=S(=O)(c1ccc(F)cc1)c1cnc2ccc(Cl)cc2c1N1CCN(c2ccc(F)cc2)CC1` [SJ000117063], the “percent inhibition (TR-FRET)” value was -4.205.

For the compound `CCc1ccc2ncc(S(=O)(=O)c3ccc(OC)cc3)c(N3CCN(c4ccc(F)cc4)CC3)c2c1` [SJ000117064], the “percent inhibition (TR-FRET)” value is on record as -9.084.

Regarding `COc1ccccc1N1CCN(c2c(S(=O)(=O)c3ccc(C)cc3)cnc3ccccc23)CC1` [SJ000117065], the “percent inhibition (TR-FRET)” value was -8.687.

On to `COc1ccccc1N1CCN(c2c(S(=O)(=O)c3ccc(C)cc3)cnc3ccc(C)cc23)CC1` [SJ000117066], for which the “percent inhibition (TR-FRET)” value is -92.8867.

Turning to `COc1ccccc1N1CCN(c2c(S(=O)(=O)c3ccc(C)cc3)cnc3ccc(Cl)cc23)CC1` [SJ000117067], the “percent inhibition (TR-FRET)” value is reported as -12.8602.

As to `COc1ccccc1N1CCN(c2c(S(=O)(=O)c3ccc(C)c(C)c3)cnc3ccccc23)CC1` [SJ000117068], the “percent inhibition (TR-FRET)” value is given as -5.706.

Still in this experiment, the particulars now being: single point TR-FRET screening of quinoline compounds against MAGE-A11:PCF11.
`CCOc1ccc2ncc(S(=O)(=O)c3ccc(Cl)cc3)c(N3CCN(c4ccccc4)CC3)c2c1` [SJ000117054]: the “percent inhibition (TR-FRET)” value is given as -446.911.
